Reference: patent US20140348966A1, “GARCINIA BUCHANANII BAKER COMPOUNDS, COMPOSITIONS AND RELATED METHODS” (priority 2011, published 2014)
“And” between values parts separate entries of the source, which are not always exact repeats. Equal values may be shown once. Where a name gives a salt, the structure may show the parent alone.

Experiments:
[1] = hydrogen peroxide scavenging assay; assay type: biochemical; conditions: isolated and reference compounds; read-out: H2O2 assay EC50
Experimental: Hydrogen peroxide scavenging assay was performed in accordance with the method of Ichikawa, M. and colleagues (2002). Sample solutions at appropriate concentration were prepared using phosphate buffer (100 mM, pH 6.0). Sample solution ([…]), phosphate buffer (30 mL, 100 mM, pH 6.0), and hydrogen peroxide solution (10 mL, 500 mM) were mixed in 96-well clear microplate (VWR, Ismaning, Germany). Then peroxidase (40 mL, 150 U/mL) and ABTS (40 mL, 0.1%) were added. The microplate was incubated at 37° C. for 15 min. The absorbance (A) of each well was measured at 414 nm with FLUOstar OPTIMA (BMG LABTECH, Offenburg, Germany). […] After freeze-drying three times 1 MPLC fractions M1-M8 were analyzed in natural concentrations.
E=[(A−Ablank)control−(A−Ablank)test]/(A−Ablank)control·100

[2] = oxygen radical absorbance capacity (ORAC) assay; assay type: biochemical; conditions: isolated and reference compounds
Experimental: ORAC assay was carried out according to the method of Ou, G. and colleagues (1993) with some modifications. Trolox and FL were used as a standard and a fluorescent probe respectively. Free radicals were produced by AAPH to oxidize FL. Different dilutions of Trolox ([…]) and appropriate dilutions of tested sample were prepared with phosphate buffer (10 mM, pH 7.4). Trolox dilution ([…]) or sample solution were pipetted into a well of 96-well black microplate (VWR) and then FL (150 mL, 10 nM) was added. The reaction mixture was incubated at 37° C. for 30 min Afterward s, fluorescence was measured every 90 sec at the excitation of 485 nm and the emission of 520 nm using FLUOstar OPTIMA. After 3 cycles, AAPH ([…], 240 mM) was added quickly, and then the measurement was resumed and continued up to 90 min (60 cycles in total). The background signal was determined using the first 3 cycles. The ORAC values were calculated according to the method of Ou, G. and colleagues (1993) and expressed as Trolox equivalent (mmol TE/mmol). After freeze-drying in triplicate, MPLC fractions M1-M8 were analyzed in natural concentrations.

guinea pig distal colon = assay: fecal pellet propulsion motility assay in isolated distal colon (GIMM)
Experimental: Gastrointestinal Motility Assays: Segments (˜10 cm long) of distal colon were pinned on either end in a Sylgard-lined 50 mL organ bath, continuously perfused with oxygenated Krebs solution (rate: 10 mL min^−1) and maintained at temperatures between 36 and 37° C. Tissues were initially allowed to equilibrate for 30 mins in re-circulating Krebs solution. Colonic motility was studied using the Gastronintestinal Motility Monitoring system (GIMM; Med-Associates Inc., Saint Albans, Vt., USA), which included a digital video camera (Catamount Research and Development Inc, St Albans, Vt., USA) to film fecal pellet propulsion. Trials were separated by 5-min recovery periods between successive pellet runs. The GIMM system software calculated velocities by tracking pellets as they traversed colon segments. After initial equilibration, five pellet propulsion trials in vehicle solution were obtained to determine the basal velocity for each tissue preparation. To reduce variations between runs and experiments, the values obtained were used to generate a normalized basal velocity by dividing the values of the 4th-5th runs by the value of the 1st-2nd runs. Garcinia buchananii stem bark extract and test compounds dissolved in 100 mL of Krebs solution were superfused either into the organ bath or into the lumen of the colon using polyethylene tubing [PE 205; outside diameter 9.5 mm (BD-Worldwide, Sparks, Md., USA)]. The effects of extract and test compounds were evaluated by obtaining velocities of four trials taken at 5-min intervals (5-20 min) Normalized velocity data for these treatments were obtained by dividing the test velocities acquired by the average velocity of the five pellet propulsion runs performed in vehicle solution (runs 1-5, above). Normalized data became ratios without units, and were presented as a percent velocity of basal activity for each tissue. Velocities of pellet propulsion were also studied during washout of tissue with Krebs solution (after extract or test compound application) for 20 min
A segment (˜10-12 cm long) of distal colon was pinned on either end in a Sylgard-lined 50 mL organ bath being continuously perfused with oxygenated Krebs solution (rate: 10 mL min^−1) and maintained at temperatures between 36-37° C. Nail-polish-coated guinea-pig pellets similar in shape and size to the “native” colonic fecal pellets were used to determine propulsive velocities using the Gastrointestinal Motility Monitoring system (Med-Associates Inc., Saint Albans, Vt., USA) for filming pellet propulsion as described by Hoffman and others (2010). Velocity was calculated based on the time required for pellets to traverse 5-6 cm of the central colon segment ending 1 cm from the aboral end. Data collection started after 30 minutes of equilibration. A five-minute interval was used to allow equilibration of motor activity between successive pellet runs. Baseline velocities were measured for 20 minutes.
In intraluminal studies, the aqueous extract was prepared by suspending 2 g of G. buchananii bark powder in 100 mL Krebs, whereas 1 g G. buchananii bark powder prepared in the same manner was used for bath (serosal) applications. The extract-Krebs mixture was continuously stirred for 30 minutes and filtered using analytical filter paper (Schleicher and Schuell Blue Ribbon filter paper 589/3; 0.2 μm retention). Garcinia buchananii extract and test compounds were delivered to isolated colons in Krebs solution, and evaluated for effects on pellet propulsion during 20-25 minute time intervals. Intraluminal drug deliveries (350 μL min^−1 Krebs solution) were performed using polyethylene tubing (PE 205; outside diameter 9.5 mm) inserted ˜1.5 cm into the oral end of the segments. In bath deliveries, G. buchananii extract and test compounds were superfused directly into the organ bath. Studies involving PTLC fractions were performed using the organ bath delivery method only.

[3] = test system: Wistar rats with high-lactose diet-induced diarrhea; assay: high-lactose diet (HLD) induced diarrhea in rats; assay type: in vivo
Experimental: A high-lactose (35%) diet induced diarrhea in Wistar rats, which were then treated with either G. buchananii bark extract (0.1, 0.5, 1.0 and 5.0 g bark powder) or its anti-motility fractions isolated using preparative thin layer chromatography; termed PTLC1 (15 mg) and PTLC5 (3.8 mg) or loperamide (8.4 mg), each dissolved in 1 liter of tap water. Numerous parameters were measured in each condition including consistency, fluid and mucus content of feces, body weight, water and food consumption, urine production and bloating.
The study was conducted in accordance with the regulations of the University of Idaho Institutional Animal Care and Use Committee (IACUC). Sixty two, 10 week old Wistar rats were obtained from Harlan Animal Research Laboratory (Hayward Calif., USA). Rats were individually caged (23-24° C.; 12:12 h light-dark cycle) and quarantined for one week. Rats were fed a standard chow diet ad libitum (Animal Specialties, Hubbard, Oreg., USA) and had free access to water for four days prior to the inducement of diarrhea. A high-lactose diet (HLD) containing 35% lactose in place of starch (3.004 Kcal; Purina Mills; Richmond, Ind., USA) was fed to 52 rats. Diarrhea was induced within 24-48 hours after consuming the diet. Rats were monitored for changes in consistency of pellets and stool mass, fecal fluid and urine production (mass; g and volume; ml). Rats were considered diarrheic if they produced watery stools, soft, yellowish stools compared to normal, pliable, soft, well-formed pellets as previously described by other researchers.
Four days after introducing rats to a HLD, diarrheic rats were treated using varying doses of G. buchananii extract, its anti-motility fractions isolated using preparative thin layer chromatoghraphy (PTLC1 & PTLC5) and loperamide for standard comparison. Rats were maintained on a HLD during the entire treatment period.
Garcinia buchananii bark powder was prepared from stem barks collected from trees in their natural habitat in Karagwe, Tanzania, as described previously by Balemba, OB and colleagues, 2010. A sample can be found at the University of Idaho Stillinger herbarium (voucher #159918). 0.1 g, 0.5 g, 1.0 g and 5.0 g of G. buchananii bark powder were each suspended in 1 L of tap water, stirred for 30 minutes and filtered. The filtrate was then immediately used to treat rats against lactose-induced diarrhea.
Twenty nine rats on a HLD were randomly assigned and treated with varying doses of G. buchananii extract (0.1 g, 0.5 g, 1 g, and 5 g extract; n=6-10 rats per group). Eight rats were treated with PTLC1 or PTLC5 (each n=4) at a dose of 15 mg and 3.8 mg in 100 mL tap water, respectively. For control treatments, seven rats were treated with loperamide (8.4 mg/L tap water), eight rats were left untreated (HLD control) and ten rats received control standard chow diets (SD). Rats were treated for a total of four days, receiving freshly made drugs every two days.
We studied the impact of a HLD and all the treatments on the consistency, form and appearance of feces. Body weight, food and water intake were measured every two days for the entire period. Diarrheic rats treated with G. buchananii (0.1 g/l, 1.0 g/l) and loperamide were used to study fecal fluid content, stool mass and urine production compared with untreated rats on a HLD and SD control diets (n=3-5). To achieve this, pellets/stools and urine were allowed to drop on non-leaking, polyester plastic mats spread in metal trays placed beneath wired cages housing rats. Pellets/stools and urine were collected every three hours, for 24 hours, for a 12-day period. Disposable polyethylene transfer pipettes (5.5 mL) were used to collect urine. Pellets/stools were collected by using custom-made pieces of Inkjet transparencies. The samples were stored in disposable, polypropylene containers (100 mL) tightly capped to avoid loss of moisture due to vaporization. […]

[4] = bath (serosal) application, 20 min, extract 1 g/100 mL Krebs, PTLC1 15 mg, PTLC5 3.8 mg/100 mL, RS-56812 50 nmol/L, cisapride 100 nmol/L, CJ-033466 300 nmol/L, granisetron 1 μmol/L, ondansetron 0.5 μmol/L, GR-113808 5 μmol/L
[5] = intraluminal delivery, 5 min, extract 2 g bark powder/100 mL Krebs, 5-HT 0.5 μmol/L, RS-56812 50 nmol/L, cisapride 100 nmol/L, CJ-033466 300 nmol/L, GR-113808 5 μM
[6] = intraluminal delivery, 15 min, extract 2 g bark powder/100 mL Krebs, drug concentrations as at 5 min
[7] = intraluminal delivery, 20 min, extract 2 g bark powder/100 mL Krebs, drug concentrations as at 5 min
[8] = HLD rats, PTLC1 15 mg, PTLC5 3.8 mg in 100 mL tap water, loperamide 8.4 mg/L, after 24 hrs to the 4th day
[9] = HLD rats, loperamide 8.4 mg/L, PTLC1 15 mg/100 mL, PTLC5 3.8 mg/100 mL

Row | SMILES | pellet propulsion, percent of normalized baseline pellet velocity (guinea pig distal colon; [4]) | pellet propulsion, percent of normalized baseline pellet velocity (guinea pig distal colon; [5]) | pellet propulsion, percent of normalized baseline pellet velocity (guinea pig distal colon; [6]) | pellet propulsion, percent of normalized baseline pellet velocity (guinea pig distal colon; [7]) | also measured
1 | O=C1CC(c2ccc(O)cc2)Oc2cc(O)cc(O)c21 (racemic) [(±)-naringenin] |  |  |  |  | EC50 [1]: 8.6 µM; ORAC assay [2]: 3.96 μmol TE/μmol
2 | Cc1cn2c(N)c(Cl)cc(C(=O)NCC3CCN(CC(C)C)CC3)c2n1 [CJ-033466] | 102.8±6.5% | 132.7 ± 7.1% | 112.1 ± 6.7% | 116.6 ± 5.6% | 
3 | NCCc1c[nH]c2ccc(O)cc12 [Compound 5-HT, Serotonin hydrochloride] |  | 118.3 ± 16.2% | 117.6 ± 13.5% | 114.3 ± 11.9% | 
4 | Cn1cc(C(=O)OCC2CCN(CCNS(C)(=O)=O)CC2)c2ccccc21 [GR-113808] | did not alter pellet propulsion | 109.3 ± 6.1% | 93.2 ± 3.6% | 91.7 ± 3.1% | inhibition of pellet propulsion (guinea pig distal colon; intraluminal, after 20 minutes, extract 2 g/100 mL Krebs, granisetron 2 μM, GR-113808 5 μM): 10%
5 | Cn1cc(C(=O)C(=O)NC2CN3CCC2CC3)c2ccccc21 (stereo not shown) [RS-56812] | 103.3±4.7% | 119.7 ± 5.2% | 119.6 ± 5.4% | 126.7 ± 9.2% | 
6 | COc1cc(N)c(Cl)cc1C(=O)NC1CCN(CCCOc2ccc(F)cc2)CC1OC (stereo not shown) [cisapride, Cisapride] | 85.0±5.5% and 85.0±5.9% | 115.6 ± 4.9% | 109.6 ± 9.3% | 122.0 ± 8.2% | inhibition of pellet propulsion (guinea pig distal colon; serosal (bath) application, 20 min, extract 1 g, PTLC1 15 mg, PTLC5 3.8 mg per 100 mL Krebs, cisapride 100 nmol/L, RS-56812 50 nmol/L): 15%
7 | CN1C2CCCC1CC(NC(=O)c1nn(C)c3ccccc13)C2.Cl (stereo not shown) [granisetron, granisetron hydrochloride] | 101.4±7.0% | 99.3 ± 4.2% | 92.4 ± 1.4% | 86.5 ± 3.6% | 
8 | CN(C)C(=O)C(CCN1CCC(O)(c2ccc(Cl)cc2)CC1)(c1ccccc1)c1ccccc1 [loperamide] |  |  |  |  | intestinal bloating / cecum distension ([3]; HLD rats, all doses): reduced cecum distension; cecum maximum diameter ([3]; HLD rats, loperamide 8.4 mg/L): 2.0+/−0.2 cm; fecal fluid content ([3]; HLD rats, loperamide 8.4 mg/L): 43.8±6.5%; Form of stool: Hardened normal pellets [3, 8]: ++++++; Form of stool: Loose stool with structural form of pellet [3, 8]: −; Form of stool: Loose stools + mucous (non-structural stool) [3, 8]: −; Form of stool: Soft formed pellets [3, 8]: −; Form of stool: Watery diarrhea + mucous (incontinence or profuse) [3, 8]: −; body weight change [3, 9]: -1.33 ± 0.64 g; food consumption [3, 9]: 28.50 ± 3.58 g; water (fluid) consumption [3, 9]: 43.96 ± 7.66 mL; reversal of weight loss versus untreated HLD rats ([3]; loperamide 8.4 mg/L, not significant): 1.78 g
9 | Cc1nccn1CC1CCc2c(c3ccccc3n2C)C1=O (stereo not shown) [ondansetron, ondansetron hydrochloride] | 111.3±9.8% |  |  |  | 
